# Source: PMC10862865 (bioRxiv, 2024)
# Target: tau4RD (Homo sapiens, UniProt P10636)
# Experiment: Unseeded heparin-induced tau4RD aggregation, thioflavin T fluorescence
# Type: biochemical
# Conditions: 1:2 protein:compound molar ratio; ThT fluorescence
# Sequence of tau4RD (P10636 561-685 limits assumed): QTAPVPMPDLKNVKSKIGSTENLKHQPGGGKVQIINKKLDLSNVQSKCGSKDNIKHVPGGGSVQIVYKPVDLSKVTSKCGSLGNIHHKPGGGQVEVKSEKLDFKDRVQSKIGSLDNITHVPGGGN
smiles,measurement,value
"O=C1c2ccccc2-n2c1nc1ccccc1c2=O [compound 1, tryptanthrin]",Inhibition of heparin-induced tau4RD aggregation in initial screen (in words),among the most potent inhibitors
